US20200085778A1, “Agent for Promoting Decomposition and Clearance of Amyloid-Beta” (Kao Corporation, priority 2017, published 2020)

Target: T1, aggregated amyloid-β (amyloid-β peptide, Human, 1-42) (Homo sapiens, UniProt P05067)
T1 construct: An amyloid-β peptide (Human, 1-42, Peptide Institute, Inc.); purchased Peptide Institute, Inc
Assay: thioflavin T (ThT) fluorescence assay of degrading aggregated amyloid
Format: biochemical
Conditions: final concentration 1, 10, or 100 μM, 37° C. for 7 days, vs 0.5% DMSO control; FIG. 1
Experimental: The direct activity of degrading aggregated amyloid by chlorogenic acid (5-CQA) was examined using a thioflavin T (ThT) fluorescence assay. An amyloid-β peptide (Human, 1-42, Peptide Institute, Inc.) was dissolved in dimethyl sulfoxide (DMSO) to 2.5 mM and was further adjusted to 250 μM with sterile water, followed by incubation at 37° C. for 7 days to promote the aggregation reaction. After the reaction, chlorogenic acid (5-CQA, Cayman Chemical Company) was added to the aggregated amyloid-β (10 mass %) at a final concentration of 1, 10, or 100 μM, followed by further incubation at 37° C. for 7 days. As a control, 0.5% DMSO, which was used as the solvent of the chlorogenic acid, was added. After the reaction, ThT (Sigma-Aldrich, final concentration: 5 μM) dissolved in 50 mM glycine buffer (pH 8.5) was added to the reaction solution in a 96-well plate (ThermoFisher Scientific), followed by a reaction at room temperature for 15 minutes while gently stirring under light shielding. After the reaction, fluorescence was detected at 450 nm (excitation) and 480 nm (emission) using a fluorescence plate reader (Ensight 3400, PerkinElmer Co., Ltd.) to measure the degree of aggregation of amyloid-β.

T1 sequence (P05067 672-713): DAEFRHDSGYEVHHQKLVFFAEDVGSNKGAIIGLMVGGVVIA

## O=C(/C=C/c1ccc(O)c(O)c1)O[C@@H]1C[C@](O)(C(=O)O)C[C@@H](O)[C@H]1O [chlorogenic acid, 5-caffeoylquinic acid]
  activity of degrading aggregated amyloid (degree of aggregation of amyloid-β, ThT fluorescence): has an activity of degrading aggregated amyloid in a dose-dependent manner
